Read-outs that look alike come from different tables or passages of the source.
Experiments:
[1] = Procedure: FIGS. 30-32 illustrate different transdermal membrane materials being tested with different solvents and solvent compositions. Solutions of water and different alcohols, including isopropanol, ethanol, and methanol were tested. The water to alcohol content was varied between 0/100 and 100/0 (by v/v) and tested with different membrane materials. For the tests 1.6 mL of solution was injected into the area between the transdermal membrane and the vapor permeable membrane. […] The membranes were observed approximately 90 seconds after providing the solvent solution to the space between the transdermal membrane and the vapor permeable membrane. […] Three different transdermal membrane materials were tested including Celgard® 2400 (FIG. 30), Celgard® 2500 (FIG. 31), and Celgard® 3501 (FIG. 32). Celgard® 2400 has an average pore diameter of about 0.041 μm and a porosity of 41%. Celgard® 2500 has an average pore diameter of about 0.064 μm and a porosity of 55%. Celgard® 3501 has an average pore diameter of about 0.064 μm and a porosity of 55%.
[2] = Wetting and permeation of solvent solutions across the transdermal membrane (FIG. 31); format: physicochemical; conditions: Celgard® 2500; 1.6 mL of solution injected between transdermal membrane and vapor permeable membrane; observed approximately 90 seconds after; v/v

CO [100% methanol, methanol]
permeation of the solvent solution across the membrane [1]: Some permeation
permeation of the solvent solution across the membrane [2]: Some permeation

O [100% water, water]
permeation of the solvent solution across the membrane [1]: no permeation

Reference: US12011560B2, “Drug delivery methods and systems” (Morningside Venture Investments Limited, priority 2015, dated 2024)
